For data set [1] the following is noted: 10% w/w aqueous solution.
Description: After given storage periods of 2,6,24 hours the percentage decomposition was measured according to the formula [formula] wherein DP2^+ is the amount of oligomers with a DP of 2 or more.
Data set [2] has as its system rats. The settings on record: rat, in vivo.
Description: The control diet consisted of the following ingredients in the indicated ratios:
Four other diets were prepared by substituting for corn starch corresponding to 10% by weight of the entire control diet equal amounts respectively: of the bulking agent according to the invention; Neosugar; Polydextrose; and sucrose.
Groups comprising five rats in each group were fed with these diets, and the digestible dry matter was measured after a preliminary period of 10 days by differential gravimetric determination.
The subject of data set [3] is rats. The experiment in a line: Weight increase of rats after an additional 6 weeks and digestibility calculated from it. The settings on record: after an additional 6 weeks, diet with 10% of substance. In kind it is in vivo. As for the experimental part:
Later, after an additional 6 weeks the weight increase was measured.
The percentual weight difference, y % of the bulking agent, taking the sucrose as a control with an assumed digestibility of 100%, thus can be calculated according to the equation: [formula]
As the bulking agent is only 10% of the diet, the digestibility, x %, can be calculated according to the equation: […]
The digestibility of Polydextose and Neosugar can be calculated in a similar manner. In the following table the calculated 6 weeks digestibilities of the bulking agents are shown.

Read-outs that look alike come from different tables or passages of the source.

Regarding `OC[C@H]1O[C@@](CO)(O[C@H]2O[C@H](CO)[C@@H](O)[C@H](O)[C@H]2O)[C@@H](O)[C@@H]1O` [Sucrose, sucrose], the percentage decomposition came to 0% in data set [1] (2 h, pH 5); 0% in data set [1] (2 h, pH 6); 0% in data set [1] (2 h, pH 7); 97.2% in data set [1] (5 h, pH 2); 31.8% in data set [1] (5 h, pH 3); 5.8% in data set [1] (5 h, pH 4). Further, the percentage decomposition in data set [1] (5 h, pH 5) is 0%; in data set [1] (5 h, pH 6) it was 0%; in data set [1] (5 h, pH 7), 0%; in data set [1] (6 h, pH 2) it was 15.0%; in data set [1] (6 h, pH 3), 3.7%; in data set [1] (6 h, pH 4), 0%. Also, the percentage decomposition was 0% in data set [1] (6 h, pH 5); 0% in data set [1] (6 h, pH 6); 0% in data set [1] (6 h, pH 7); 0% in data set [1] (24 h, pH 5); 0% in data set [1] (24 h, pH 6); 0% in data set [1] (24 h, pH 7). Moreover, the percentage decomposition in data set [1] (48 h, pH 2) is given as 100%; in data set [1] (48 h, pH 3), 77.2%; in data set [1] (48 h, pH 4), 10.8%; in data set [1] (48 h, pH 5), 1.6%; in data set [1] (48 h, pH 6) it was 0%; in data set [1] (48 h, pH 7) it was 0%. Besides, the “Digestible dry matter of diet, mean” value in data set [2] worked out at 94.1%. Further, the Average weight increase in data set [3] is listed as 220.11 g.
With Polydextrose, in data set [2], the “Digestible dry matter of diet, mean” value came to 91.8% and the “Digestible dry matter of the bulking agent, x %” value came out at 68%.

The values above are taken from patent US4871571A, “Dietetic foodstuff containing low calorie bulking agent” (Novo Industri A/S, priority 1987, dated 1989).
